Laboratory results as given in patent US10322097B2, “Treatment of subjects with multidrug-resistant cancer” (priority 2015, dated 2019).

Key:
[1] = system: A549 (Lung) taxol resistant cancer cells; test: MTT cytotoxicity assay, A549 taxol resistant; type: cell-based, human
Experimental: (§1) Cell cultures and cytotoxicity assays have been used. Celastrol was dissolved in DMSO at a final concentration of 100 mmol/L and stored at −20° C. Cytotoxicity was assessed using the 3-(4,5-dimethylthiazol-2-yl)-2,5-diphenyltetrazolium bromide assay. 4000 cells from A549 (lung), A2780 (ovary), HCT-8 (colon) and MCF-7 (breast) cancer cells were seeded on 96-well plates per well. After overnight pre-incubation, the cells were exposed to different concentrations of celastrol (0.039-100 μmol/L) or taxol for 3 days. Subsequently, 10 μL of MTT reagents was added to each well and incubated at 37° C. for 4 hours followed by the addition of 100 μL solubilization buffer (10% SDS in 0.01 mol/L HCl) and overnight incubation. Absorbance at 585 nm was determined from each well the next day. The percentage of cell viability was calculated using the following formula: Cell viability (%)=Cells number treated/Cells number DMSO control×100. Data were obtained from three independent experiments.

[2] = target: P-gp (Homo sapiens, UniProt P08183); test: Rho123 efflux assay in A549 taxol-resistant lung cancer cells (flow cytometry)
Sequence of P-gp (P08183 whole entry): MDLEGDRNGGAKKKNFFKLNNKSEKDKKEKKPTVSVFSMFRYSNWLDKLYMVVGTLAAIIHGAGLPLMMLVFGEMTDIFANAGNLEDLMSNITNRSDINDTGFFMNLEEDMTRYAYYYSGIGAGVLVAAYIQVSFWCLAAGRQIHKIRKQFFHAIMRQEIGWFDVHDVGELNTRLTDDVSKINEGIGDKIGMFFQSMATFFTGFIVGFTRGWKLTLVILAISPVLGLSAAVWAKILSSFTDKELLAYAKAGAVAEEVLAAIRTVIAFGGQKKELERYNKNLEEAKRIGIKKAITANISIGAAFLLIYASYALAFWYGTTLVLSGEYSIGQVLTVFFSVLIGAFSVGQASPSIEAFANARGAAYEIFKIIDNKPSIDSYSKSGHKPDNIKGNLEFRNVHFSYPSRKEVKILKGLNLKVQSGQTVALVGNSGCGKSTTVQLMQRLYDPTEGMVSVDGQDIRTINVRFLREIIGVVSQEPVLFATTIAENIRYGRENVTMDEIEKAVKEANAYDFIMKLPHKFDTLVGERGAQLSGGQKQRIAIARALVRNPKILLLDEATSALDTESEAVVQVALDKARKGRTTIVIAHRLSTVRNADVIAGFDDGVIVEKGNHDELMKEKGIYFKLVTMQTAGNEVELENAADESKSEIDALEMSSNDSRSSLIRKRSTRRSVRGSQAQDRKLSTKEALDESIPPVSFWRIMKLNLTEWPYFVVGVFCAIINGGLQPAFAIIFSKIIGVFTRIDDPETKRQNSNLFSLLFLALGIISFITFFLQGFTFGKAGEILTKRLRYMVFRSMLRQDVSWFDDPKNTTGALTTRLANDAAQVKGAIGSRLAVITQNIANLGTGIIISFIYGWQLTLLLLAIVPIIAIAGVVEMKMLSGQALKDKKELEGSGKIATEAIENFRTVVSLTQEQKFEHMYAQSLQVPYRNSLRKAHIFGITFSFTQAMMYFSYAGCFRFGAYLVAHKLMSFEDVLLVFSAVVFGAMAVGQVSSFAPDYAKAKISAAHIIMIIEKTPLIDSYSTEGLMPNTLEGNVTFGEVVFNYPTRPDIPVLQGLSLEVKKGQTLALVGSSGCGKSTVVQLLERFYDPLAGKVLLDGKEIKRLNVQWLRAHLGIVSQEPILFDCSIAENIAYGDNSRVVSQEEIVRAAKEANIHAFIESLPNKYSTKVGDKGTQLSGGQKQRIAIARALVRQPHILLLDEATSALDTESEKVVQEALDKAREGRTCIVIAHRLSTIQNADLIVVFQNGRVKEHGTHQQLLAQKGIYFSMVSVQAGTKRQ
Experimental: A549 taxol-resistant lung cancer cells were seeded in 6 well-plates at a final concentration of 2×10^5 cells per well and cultured for 24 h at 37° C. in an atmosphere containing 5% CO2. […] Subsequently, 5 mg/mL Rho123 was added to each well and the wells were incubated for another 1 h at 37° C. At the end of the incubation, the accumulation of Rho123 was stopped by washing the cells five times with ice-cold PBS. After cell centrifugation, cell pellets were resuspended in 400 μL PBS. […] All data acquisition and analyses were performed with CellQuest (BD Biosciences, San Jose, Calif., USA) in triplicate in three independent experiments, and the results were shown as the mean of fluorescence intensity.
A549 taxol-resistant lung cancer cells were seeded in 6 well-plates at a final concentration of 2×10^5 cells per well and cultured for 24 h at 37° C. in an atmosphere containing 5% CO2. […] All data acquisition and analyses were performed with CellQuest (BD Biosciences, San Jose, Calif., USA) in triplicate in three independent experiments, and the results were shown as the mean of fluorescence intensity.

[3] = system: MCF-7 (Breast) taxol sensitive cancer cells; test: MTT cytotoxicity assay, MCF-7 taxol sensitive; type: cell-based; details: Homo sapiens, MCF7, 72 h, read-out: IC50 MCF-7 (Breast) (Taxol sensitive)
Experimental: as §1

[4] = system: A549 taxol-resistant lung cancer cells; test: Annexin V flow cytometry analysis of cell death; type: cell-based, human; details: 24 h
Experimental: Annexin V flow cytometry analysis has been carried out. Cell death and viability were measured using an Annexin V staining kit (BD Biosciences, San Jose, Calif., USA).
Briefly, A549 taxol-resistant cancer cells were treated with 0.1-0.5 μM celastrol with or without 40 μM of taxol for 24 h. Cells were then harvested and analysed by multiparametric flow cytometry using FITC-Annexin V and propidium iodide staining (BD Biosciences, San Jose, Calif., USA) according to the manufacturer's instructions. Flow cytometry was then carried out using a FACSCalibur flow cytometer (BD Biosciences, San Jose, Calif., USA). Data acquisition and analysis was performed with CellQuest (BD Biosciences, San Jose, Calif., USA). Data were obtained from three independent experiments.

[5] = system: MCF-7 (Breast) doxorubicin sensitive cancer cells; test: MTT cytotoxicity assay, MCF-7 doxorubicin sensitive; type: cell-based; details: Homo sapiens, MCF7, 72 h, read-out: IC50 MCF-7 (Breast) (Doxorubicin sensitive)
Experimental: as §1, with “from” for “from A549 (lung), A2780 (ovary), HCT-8 (colon) and”, “MCF-7 doxorubicin sensitive/resistant breast” for “MCF-7 (breast)”, “cancer cells or CEM doxorubicin sensitive/resistant leukemia” for “cancer”, “or doxorubicin” for “or taxol”, “reagents were” for “reagents was”

[6] = system: MDA-MB-231/BCRP breast cancer cells; test: MTT cytotoxicity assay, MDA-MB-231/BCRP; type: cell-based
Experimental: as §1, with “from HEK293” for “from A549 (lung), A2780 (ovary), HCT-8 (colon)”, “and HEK293/ABCB5 kidney cancer cells or MDA-MB-231 pcDNA and MDA-MB-231/BCRP breast” for “and MCF-7 (breast)”, “celastrol (0.1-10” for “celastrol (0.039-100”, “μmol/L)” for “μmol/L) or taxol”, “reagents were” for “reagents was”

CC1=C(O)C(=O)C=C2C1=CC=C1[C@@]2(C)CC[C@@]2(C)[C@@H]3C[C@](C)(C(=O)O)CC[C@]3(C)CC[C@]12C [Celastrol, celastrol]
Resistant Factor ([1]; A549 taxol resistant versus taxol sensitive): 0.42 | IC50 ([1]; Homo sapiens, A549, 72 h, read-out: IC50 A549 (Lung) (Taxol resistant)): 1 µM | P-gp activity / Rho123 accumulation (Example 2) [2]: inhibited the P-gp activity dose-dependently | P-gp activity / Rho123 accumulation (Example 9) [2]: inhibited the P-gp activity dose-dependently | IC50 [3]: 1.12 µM | cytotoxicity (cell death, Annexin V) ([4]; 0.1-0.5 μM celastrol alone): limited cytotoxicity | taxol-mediated cytotoxicity (cell death, Annexin V) on co-treatment ([4]; 0.1-0.5 μM celastrol with 40 μM taxol): significantly enhanced | IC50 [5]: 1.13 µM | Resistant Factor ([6]; IC50 MDA-MB-231/BCRP divided by IC50 MDA-MB-231 pcDNA): 1.28 | IC50 ([6]; MDA-MB-231/BCRP, 72 h, MTT, 3 days): 6.19 µM
